Source: patent US11959102B2, “Augmentation of fibroblast regenerative activity” (Figene, LLC, priority 2017, dated 2024)

Tested on: Foreskin fibroblasts
Experiment: VEGF production by cultured fibroblasts, ELISA of culture media
Assay type: cell-based
Details: media after 24 hours of culture
Method: (§1) Foreskin fibroblasts purchased from ATCC where cultured in T-75 flasks using Fibroblast Basal Media from ATCC. When cells reached 75% confluence, exposure to: a) Normoxia; b) hypoxia (2% oxygen for 4 hours); c) carbon monoxide (250 ppm) for 4 hours; or d) hypoxia followed by carbon monoxide. Cells were re-plated on 96 well plates, flat bottomed, by trypsinization. Concentration of re-plated cells was 0, 10,000, 20,000 and 40,000 cells per well. Culture media was extracted after 24 hours of culture and analyzed for VEGF production using ELISA (R&D Systems). […] No VEGF production was observed from Normoxic Control fibroblasts.
as §1, with “simultaneously as” for “followed by”, “monoxide” for “monoxide.”, “replated” for “re-plated”

## [C-]#[O+] [carbon monoxide]
Hypoxia (2% oxygen for 4 hours) followed by carbon monoxide (250 ppm, 4 hours), FIG. 1
  VEGF production: synergistic increase
Hypoxia (2% oxygen for 4 hours) simultaneously as carbon monoxide (250 ppm), FIG. 2
  VEGF production: synergistic increase
